From patent publication US9220264B2, “Multimeric forms of antimicrobial peptides” (Singapore Health Services Pte Ltd., priority 2008, dated 2015)
Converted amounts (≈) assume the structure as drawn. Like-named read-outs stand apart in the source and are kept apart here. Bridge positions count the residues as written; N and C are the ends. Peptide text beside a SMILES is read from it. I, II: the chains in the order shown.

Columns and labels:
[1] = tested on: Clinical Cadida albicans DF2672R Source: Urine; assay type: cell-based, Candida albicans
Protocol: (§1) MICs was determined by broth macrodilution method modified from that described by the National Committee for Clinical Laboratory Standards (NCCL). The Mueller Hinton Broth (MHB) at ⅙ strength and without addition of Ca^2+ and Mg^2+ was used for dilution. Serial twofold dilutions of V2 dimer solution was prepared in MHB (⅙ strength) in test tubes. 1 ml of inoculum of test organisms in MHB (⅙ strength) was added to 1 ml of each dilution of V2 dimer to yield as final concentration of 10^4 to 10^5 colony forming units/ml in each test tube. The tubes were incubated at 35° C. for 16 to 20 hours. A positive control containing only the broth and organism, and a negative control tube containing only the broth were also incubated in parallel to the test samples. The above was repeated for each different test organism in separate experiments. The MIC of V2 dimer peptide for each clinical isolate or reference organism was read as the lowest concentration of peptide that inhibited visible growth of the test organism.
(§2) The MIC was also determined for other peptides and compared to gentamicin.

[2] = tested on: Escherichia coli ATCC25922; assay type: cell-based
Protocol: as §1, §2

[3] = tested on: Clinical Pseudomonas aeruginosa 07DM 023257 Source: Eye; assay type: cell-based; details: Clinical 07DM 023257 Source: Eye
Protocol: as §1, §2

[4] = tested on: Clinical Pseudomonas aeruginosa DM 023155 Source: Eye; assay type: cell-based; details: Clinical DM 023155 Source: Eye
Protocol: as §1, §2

[5] = tested on: Clinical Pseudomonas aeruginosa DM 023104 Source: Eye; assay type: cell-based; details: Clinical DM 023104 Source: Eye
Protocol: as §1, §2

[6] = tested on: Clinical Escherichia coli DU46381R Source: Urine; assay type: cell-based
Protocol: as §1, §2

[7] = tested on: Candida albicans ATCC10231; assay type: cell-based
Protocol: as §1, §2

[8] = tested on: Clinical Pseudomonas aeruginosa PAE 230 DR4877/07 Source: Sputum; assay type: cell-based
Protocol: as §1, §2

[9] = tested on: Clinical Pseudomonas aeruginosa PAE 249 DM15013 Source: Wound; assay type: cell-based; details: Clinical PAE 249 DM15013 Source: Wound
Protocol: as §1, §2

[10] = tested on: Clinical Pseudomonas aeruginosa PAE 240 DU14476/07 Source: Urine; assay type: cell-based; details: Clinical PAE 240 DU14476/07 Source: Urine
Protocol: as §1, §2

[11] = tested on: Clinical Pseudomonas aeruginosa 07DM023376 Source: Eye; assay type: cell-based; details: Clinical 07DM023376 Source: Eye
Protocol: as §1, §2

[12] = tested on: Clinical Pseudomonas aeruginosa PAE 239 DM5790/07 Source: Wound; assay type: cell-based
Protocol: as §1, §2

[13] = tested on: Fusarium solani ATCC 36031; assay type: cell-based
Protocol: as §1, §2

[14] = tested on: Clinical Escherichia coli DB16027 Source: Blood; assay type: cell-based
Protocol: as §1, §2

[15] = tested on: Clinical Staphylococcus aureus DM4001 Source: Eye; assay type: cell-based
Protocol: as §1, §2

[16] = tested on: human conjunctival epithelial cells; assay type: cell-based
Protocol: The results are from four independent experiments and data points show the mean and standard deviations. The X axis indicates the peptide concentration in μg/ml and the Y axis indicates the % cell viability. The cytotoxicity of V2 dimer were tested against human conjunctival cells according to the method described in WO 2007/126392 and compared with native hBD3. […] Wildtype hBD3 was cytotoxic at concentrations of about 15 μg/ml, however, the V2 dimer was not cytotoxic at concentrations of 100 μg/ml.

[17] = tested on: Methicillin-resistant staphylococcus aureus (MRSA) DM09808R Source: Eye; assay type: cell-based; details: MHB 1/6 strength; 35° C.; 16 to 20 hours
Protocol: as §1, §2

[18] = tested on: Clinical Pseudomonas aeruginosa PA4-PAE 249 DM15013 Source: Wound; assay type: cell-based; details: USP Phosphate Buffer pH 7.2, 4 hrs, 35° C.
Protocol: (§3) The method for testing antimicrobial activity of antimicrobial peptides used an absolute killing procedure as described below. The bacterial cultures were grown on Trypticase Soy Agar (TSA) […], and the yeast culture on Sabouraud Dextrose Agar ([…] 35° C. for 16 hours. The organisms were harvested by centrifugation and washing twice in Phosphate buffer, pH 7.2 (United States Pharmacopeia, USP) at 20° C. The freeze-dried antimicrobial compound was dissolved in purified water and distributed into screw-capped plastic tubes at a concentration of 1,000 micro-grams (μg) per ml. These served as stock solutions and were kept at -20° C. On the day of conducting the test, one tube of the stock solution was defrosted and diluted in purified water to a concentration of 500 μg/ml. Thereafter, further dilutions were carried out in either USP Phosphate Buffer, pH 7.2 or other solutions (including but not limited to 10 mM sodium phosphate buffer, pH 7.4, 10 mM potassium buffer 7.2 or 155.2 mM NaCl), to the test concentrations required, normally ranging from 6.25 μg/ml to 50 μg/ml. Ten micro-liters (μl) of the test organism of standardised concentration was inoculated into one ml of the compound test solution of specific test concentration to provide a final count of between 1×10^5 cfu/ml and 1×10^6 cfu/ml as far as possible. The inoculated test solutions were than incubated at 35° C. for 4 hours. The incubation temperature and time may be varied as required. After incubation, the antimicrobial activity of the test solutions was inactivated by a 10-fold dilution in D/E Neutralising Broth (NB). Further dilutions were carried out in the NB, and plated out in TSA for bacteria, and SDA for yeast culture. The plates were incubated at 35° C. for 72 hours. The viable count of the survivor organisms was then determined. As an inoculum control, the test organism was inoculated, parallel to the Test, into the buffer used in the preparation of the test solutions instead and incubated under the same condition as the Test. The viable count of the inoculum control was determined as for the Test. […] The method described above was used for Examples 3-7 and in particular, the method for gentamicin in Example 6 is similar except that gentamicin was substituted for the antimicrobial compound.

[19] = tested on: Clinical Pseudomonas aeruginosa Ps-C 07DM023155 Source: Eye; assay type: cell-based; details: USP Phosphate Buffer pH 7.2, 4 hrs, 35° C.
Protocol: as §3

[20] = tested on: Clinical Pseudomonas aeruginosa PA2-PAE 239 DM5790/07 Source: Wound; assay type: cell-based; details: USP Phosphate Buffer pH 7.2, 4 hrs, 35° C.
Protocol: as §3

[21] = tested on: Clinical Pseudomonas aeruginosa PA1-PAE 230 DR4877/07 Source: Sputum; assay type: cell-based; details: USP Phosphate Buffer pH 7.2, 4 hrs, 35° C.
Protocol: as §3

[22] = tested on: Clinical Pseudomonas aeruginosa Ps-D 07DM023104 Source: Eye; assay type: cell-based; details: USP Phosphate Buffer pH 7.2, 4 hrs, 35° C.
Protocol: as §3

[23] = tested on: Clinical Pseudomonas aeruginosa PA3-PAE 240 DU14476/07 Source: Urine; assay type: cell-based; details: USP Phosphate Buffer pH 7.2, 4 hrs, 35° C.
Protocol: as §3

[24] = Clinical PAE 230 DR4877/07 Source: Sputum
[25] = Clinical PAE 239 DM5790/07 Source: Wound
[26] = MHB 1/6 strength, 35° C., 16 to 20 hours

Molecule N=C(N)NCCC[C@H](NC(=O)CNC(=O)[C@@H](N)CCCNC(=N)N)C(=O)N[C@@H](CCCCN)C(=O)N[C@@H](Cc1ccc(O)cc1)C(=O)N[C@@H](Cc1ccc(O)cc1)C(=O)N[C@@H](CCCNC(=N)N)C(=O)N[C@@H](CCCNC(=N)N)C(=O)NCCCC[C@H](NC(=O)[C@H](CCCNC(=N)N)NC(=O)[C@H](CCCNC(=N)N)NC(=O)[C@H](Cc1ccc(O)cc1)NC(=O)[C@H](Cc1ccc(O)cc1)NC(=O)[C@H](CCCCN)NC(=O)[C@H](CCCNC(=N)N)NC(=O)CNC(=O)[C@@H](N)CCCNC(=N)N)C(=O)N[C@@H](CCCCN)C(=O)O [Y2-dimer] (I: H-RGRKYYRRKK-OH / II: H-RGRKYYRR; amide I:9-II:C; N-terminus assumed) has an MIC [1] of 12.5 µg/mL (≈ 4.91 µM), an MIC [2] of 12.5 µg/mL (≈ 4.91 µM) and an MIC [3] of 12.5 µg/mL (≈ 4.91 µM). The MIC [4] was 25 µg/mL (≈ 9.82 µM), the MIC [5] was 12.5 µg/mL (≈ 4.91 µM) and the MIC [6] was 12.5 µg/mL (≈ 4.91 µM). It also gave an MIC [7] of 25 µg/mL (≈ 9.82 µM), an MIC [8, 24] of 12.5 µg/mL (≈ 4.91 µM) and an MIC [9] of 12.5 µg/mL (≈ 4.91 µM). It also gave an MIC [10] of 6.25 µg/mL (≈ 2.45 µM), an MIC [11] of 25 µg/mL (≈ 9.82 µM) and an MIC [12, 25] of 12.5 µg/mL (≈ 4.91 µM). It also gave an MIC [13] of 12.5 µg/mL (≈ 4.91 µM), an MIC ([14]; Clinical DB16027 Source: Blood) of 6.25 µg/mL (≈ 2.45 µM) and an MIC [15] of 12.5 µg/mL (≈ 4.91 µM).
In the case of N=C(N)NCCC[C@H](NC(=O)CNC(=O)[C@@H](N)CCCNC(=N)N)C(=O)N[C@@H](CCCCN)C(=O)N[C@@H](Cc1ccc(O)cc1)C(=O)N[C@@H](Cc1ccc(O)cc1)C(=O)N[C@@H](CCCNC(=N)N)C(=O)N[C@@H](CCCNC(=N)N)C(=O)N[C@@H](Cc1ccc(O)cc1)C(=O)N[C@@H](Cc1ccc(O)cc1)C(=O)O [Y4 monomer, RGRKYYRRYY] (H-RGRKYYRRYY-OH; N-terminus and C-terminus assumed), the MIC [1] is reported as 25 µg/mL (≈ 16.9 µM), the MIC [2] is reported as 12.5 µg/mL (≈ 8.44 µM) and the MIC [3] is reported as greater than 50 µg/mL. It also gave an MIC [4] of 25 µg/mL (≈ 16.9 µM), an MIC [5] of 50 µg/mL (≈ 33.8 µM) and an MIC [6] of 12.5 µg/mL (≈ 8.44 µM). For the same molecule, the MIC [7] was 12.5 µg/mL (≈ 8.44 µM), the MIC [8, 24] was greater than 50 µg/mL and the MIC [9] was 50 µg/mL (≈ 33.8 µM). It also gave an MIC [10] of 25 µg/mL (≈ 16.9 µM), an MIC [11] greater than 50 µg/mL and an MIC [12, 25] of 50 µg/mL (≈ 33.8 µM). It also gave an MIC [13] of 12.5 µg/mL (≈ 8.44 µM), an MIC ([14]; Clinical DB16027 Source: Blood) of 6.25 µg/mL (≈ 4.22 µM) and an MIC [15] of 12.5 µg/mL (≈ 8.44 µM).
“GIINTLQKYYCRVRGGRCAVLSCLPKEEQIGKCSTRGRKCCRRKK (Homo sapien) [Wildtype hBD3, reference compound]” was tested, and the “concentration at which cytotoxic” value [16] was “about 15 μg/ml”.
Gentamicin gave an MIC [8, 26] of 400 µg/mL, an MIC [17] of 12.5 µg/mL and an MIC [12, 26] of 25 µg/mL. For the same molecule, the MIC [14, 26] was 0.78 µg/mL, the “Log Reduction” value ([18]; 3.125 ug/ml) was 2.28 and the “Log Reduction” value ([18]; 6.25 ug/ml) was 2.41. For the same molecule, the “Log Reduction” value ([18]; 12.5 ug/ml) was 2.50, the “Log Reduction” value ([18]; 25.0 ug/ml) was 2.60 and the “Log Reduction” value ([18]; 50.0 ug/ml) was 2.63. The “Log Reduction” value ([19]; 3.125 ug/ml) was greater than 4.61, the “Log Reduction” value ([19]; 6.25 ug/ml) was greater than 4.61 and the “Log Reduction” value ([19]; 12.5 ug/ml) was greater than 4.61. For the same molecule, the “Log Reduction” value ([19]; 25.0 ug/ml) was greater than 4.61, the “Log Reduction” value ([19]; 50.0 ug/ml) was greater than 4.61 and the “Log Reduction” value ([20]; 3.125 ug/ml) was 3.02. For the same molecule, the “Log Reduction” value ([20]; 6.25 ug/ml) was 3.07, the “Log Reduction” value ([20]; 12.5 ug/ml) was 3.03 and the “Log Reduction” value ([20]; 25.0 ug/ml) was 3.04. For the same molecule, the “Log Reduction” value ([20]; 50.0 ug/ml) was 3.31, the “Log Reduction” value ([21]; 3.125 ug/ml) was 0.22 and the “Log Reduction” value ([21]; 6.25 ug/ml) was 0.35. For the same molecule, the “Log Reduction” value ([21]; 12.5 ug/ml) was 0.65, the “Log Reduction” value ([21]; 25.0 ug/ml) was 0.54 and the “Log Reduction” value ([21]; 50.0 ug/ml) was 0.39. For the same molecule, the “Log Reduction” value ([22]; 3.125 ug/ml) was greater than 4.33, the “Log Reduction” value ([22]; 6.25 ug/ml) was greater than 4.33 and the “Log Reduction” value ([22]; 12.5 ug/ml) was greater than 4.33. For the same molecule, the “Log Reduction” value ([22]; 25.0 ug/ml) was greater than 4.33, the “Log Reduction” value ([22]; 50.0 ug/ml) was greater than 4.33 and the “Log Reduction” value ([23]; 3.125 ug/ml) was 3.66. The “Log Reduction” value ([23]; 6.25 ug/ml) was 3.76, the “Log Reduction” value ([23]; 12.5 ug/ml) was 3.88 and the “Log Reduction” value ([23]; 25.0 ug/ml) was 4.18. For the same molecule, the “Log Reduction” value ([23]; 50.0 ug/ml) was 4.57.
